Legend:
[1] = system: primary human mast cells (human skin); test: Histamine release assay, anti-IgE induced, primary human mast cells; format: cell-based; conditions: Mast cell, maximal effect at 25 μM, not dependent on pre-incubation time, read-out: maximal inhibitory effect on IgE-induced histamine release
Procedure: Tissue mast cells were isolated from human skin obtained during cosmetic surgery. Use of human skin was conducted according to the Declaration of Helsinki Principles and was approved by the Institutional Review Board of the Charité—Universitätsmedizin Berlin. For isolation of mast cells, the epidermis was enzymatically detached by an overnight incubation at 4° C. with dispase at a concentration of 1 mg/ml. The remaining dermis was dispersed by incubation with a mix of collagenase I and hyaluronidase for 1 h at 37° C. Dispersion was repeated three times, and the collected cells were washed. […] The final mast cell purity was >90% as measured by Toluidin blue staining. The viability of mast cells was >95% as assessed by Trypan blue staining (Grützkau et al 2000, Artuc et al 2002). The quantification of histamine levels was achieved using an automated histamine-analyser system (Firm Borgwelt Technik). The wavelength of the excitation was 355-360 nm and the emission wavelength of fluorescence measurement was 450-460 nm. The intensity of fluorescence was directly proportional to the concentration of histamine in the samples. The amount of released histamine was calculated according to the following formula: net histamine release=(release−blank)×(100/complete). […]

[2] = system: Rat basophilic leukemia (RBL-2H3) cells; test: Mast cell degranulation assay (β-hexosaminidase release); format: cell-based; conditions: Rattus norvegicus
Procedure: The assay measures release of β-hexosaminidase as a marker of release of various preformed pharmacological agents in response to clustering of the high affinity IgE receptor (FcεRI) by means of multivalent antigen-IgE complexes. Rat basophilic leukemia (RBL-2H3) cells, a commonly used model of mast cell degranulation, are sensitized with anti-DNP specific IgE and challenged with multivalent DNP-BSA. The release of β-hexosaminidase into the supernatant is measured by enzymatic conversion of the fluorogenic substrate 4-methylumbelliferyl-N-acetyl-β-D-glucosaminide to N-acetyl-β-D-glucosamine and highly fluorescent methylumbelliferone and quantified by fluorescence detection in a Tecan Safire™ plate reader.
RBL-2H3 cells obtained from the German Collection of Microorganisms and Cell Cultures (Braunschweig, Germany) were maintained in 70% Minimum Essential Medium with Earle's Salts/20% RPMI 1640/10% heat-inactivated fetal calf serum) supplemented with 2 mM GlutaMAX™-I in 5% CO2 at 37° C. and routinely checked to be free of mycoplasma contamination. Cells grown in 175 cm^2 flasks were split with 0.05% Trypsin/EDTA and resuspended in 20 ml fresh medium. One hundred and 50 μl cell suspension were plated per well into 24 well cluster plates (Costar, Schiphol-Rijk, Netherlands) and cells were used one or two days after plating, respectively.
Two to 24 hours before incubation with test compounds the medium was removed and cells were sensitized with 0.4 μg/ml anti-DNP IgE in fresh medium. Following sensitization, cells were washed once with warm TyB and incubated for 60 min with test compound at a maximum of 100 μM or the highest non-toxic concentration (total vehicle concentration adjusted to 1%) or 1% vehicle in TyB at 37° C. DNP-HSA (0.1 μg/ml final concentration) or buffer alone was added and cells incubated for 15 min at 37° C. Plates were centrifuged at 4° C. for 5 min at 250×g and immediately transferred to ice. Supernatants were collected and the cells lysed with lysis buffer. Hexosaminidase activity in supernatants and lysates was measured by incubating 25 μl aliquots with 100 μl MUG substrate solution in a 96-well plate at 37° C. for 30 min. The reaction was terminated by addition of 150 μl stop solution. Fluorescence was measured in a Tecan Safire™ plate reader at 365 nm excitation and 440 nm emission settings.
Each compound is tested in duplicates in at least three independent experiments. β-hexosaminidase release is calculated after subtraction of unspecific release (release without addition of antigen) using the formula: % degranulation=100×RFU supernatant/RFU lysate
Inhibition of β-hexosaminidase release with respect to control is calculated as
follows: % inhibition=100×(1−(RFU supernatant of compound/RFU supernatant of control))

[3] = system: membrane integrity (lactate dehydrogenase release)

For CCCCCCCCCCCCCCCCOP(=O)([O-])OCC[N+](C)(C)C [Compound 3, 1-hexadecylphosphoryl-choline], the inhibition at 25 µM [1] was 35%, the IC50 ([2]; 1 h, concentration at which 50% of maximal inhibition is reached, RBL-2H3, 60 min incubation with compound, DNP antigen challenge, read-out: ID50 (the source's name)) was 4.6 µM and the inhibition at 10 µM ([2]; RBL-2H3, 10 μM, read-out: maximum inhibition (concentration used)) was 87%. For the same compound, the inhibition at 25 µM ([2]; RBL-2H3, at or 25 μM, read-out: inhibition of degranulation) was > 75% and the CD50 [3] was 69.5 µM.
